# Laboratory results reported in patent EP0329348B1, “2',3'-Dideoxy-2',2'-difluoronucleosides” (ELI LILLY AND COMPANY, priority 1988, dated 1989).
# What was measured:
# Assay type in all cases: cell-based
# [1] = system: human leukemic cells (CCRF-CEM cell line); experiment: Cytotoxicity screen: growth inhibition of human leukemic cells; conditions: read-out: IC₅₀ (concentration giving 50% growth inhibition)
# Source text: See, e.g., Miller et al., in J. Med. Chem. Vol. 20, No. 3 409 (1977) and Sweeney, et al., in Cancer Research 38, 2886 (1978).
# The compounds of the present invention represented by Formula I are cytostatic in that they inhibit the growth of human leukemic cells (CCRF-CEM cell line). Table 1 below gives the results of such testing of compounds representative of those in Formula I. In the Table, column 1 gives the example number of the compound and column 2 the IC₅₀ (concentration giving 50% growth inhibition) in mcg/ml.
# Friends leukemia virus = experiment: CPE inhibition in SC-1 cells infected with murine leukemia virus, XC cell overlay; conditions: SC1, 120 h, SC-1 cells from a feral mouse, XC cells added after 5 days, read-out: IC₅₀
# Description: The following procedure was used to establish the efficacy of a representative compound of the present invention against Friends leukemia virus. SC-1 cells from a feral mouse were seeded subconfluently at 2-5 x 10³ cells per well in 96 microwell plates with complete MEM media plus 2 mcg/ml polybrene overnight at 37°C under a carbon dioxide atmosphere. The medium was removed. The cultures were infected with a proper dilution of murine leukemia virus (50 mcl/well) and were allowed to adsorb for about two hours at room temperature. After adsorption, the virus containing medium was removed and replaced with fresh complete MEM, both with and without dilutions of the compound of Example 1, and reincubated at 37°C under carbon dioxide for 5 days or until the cells reached confluence. The medium was removed and the cells were exposed for 10 seconds to a UV germicidal light. XC cells from a Rous sarcoma virus induced rat tumor cell line at a concentration of 5-8 x 10⁴ cells/well were added to the irradiated SC-1 monolayers. The cultures were incubated at 37°C under carbon dioxide for three days until CPE occurred in the control wells. Cultures were fixed with formalin and stained with crystal violet. The results were scored as CPE inhibition.
# HSV-1 = experiment: Plaque-reduction study against HSV-1; conditions: HSV-1 plaque reduction
# Description: (§1) The following plaque-reduction study provides a quantitative evaluation of inhibitors of virus multiplication and establishes the antiviral activity of a representative compound of the present invention. According to this study, susceptible cells (BSC-1, Hela, MDCK, etc.) were grown in 25 cm² Falcon flasks at 37°C in Medium 199 with 5 percent inactivated fetal bovine serum (FBS), penicillin (150 units/ml) and streptomycin (150 »g/ml). When confluent monolayers were formed, the growth medium was removed and 0.3 ml of an appropriate dilution of the virus was added to each flask. After adsorption for one hour at room temperature, the infected cell sheet was overlaid with equal parts of 1 percent Agarose and 2x Medium 199, 2.5 percent FBS, penicillin, and streptomycin. The compound to be tested was dissolved in dimethyl sulfoxide (DMSO) at a concentration of 10,000 »g/ml and an aliquot of the resulting solution was diluted to the desired concentration with the agar medium mixture. Flasks were incubated at 37°C until control flasks indicated optimum plaque size of about 2 to about 10 mm. A solution containing 10 percent formalin by volume and 2 percent sodium acetate by volume was added to each flask to inactivate the virus and fix the cell sheet to the plastic surface. The plaques were counted after staining the surrounding cell areas with crystal violet. Results from duplicate flasks at each concentration were averaged and compared with control flasks. The following degrees of inhibition against HSV-1 were observed.
# HSV-2 = experiment: Plaque-reduction study against HSV-2; conditions: HSV-2 plaque reduction
# Description: as §1, with “Results from duplicate flasks at each concentration were averaged and compared with control flasks. The following degrees of inhibition against HSV-1 were observed.” left out
SMILES,IC50 [1] [µg/mL],Inhibition (HSV-1; concentration 25 (unit ug/ml)) [%],other results
"Nc1ccn([C@@H]2O[C@H](CO)CC2(F)F)c(=O)n1 [Example 1, β-1-(4-Amino-2-oxo-1H-pyrimidin-1-yl)-2,3-dideoxy-2,2-difluororibose]",1.9,–,"IC50 (Friends leukemia virus): 6.5 µg/mL; inhibition at 15 µg/mL (HSV-1; Human alphaherpesvirus 1, concentration 15 ug/ml): 50%"
"Nc1nc(N)c2ncn([C@@H]3O[C@H](CO)CC3(F)F)c2n1 [Example 2, β-1-(2,6-diamino-9H-purin-9-yl)-2,3-dideoxy-2,2-difluororibose]",1.9,–,Inhibition (HSV-1; concentration 3.1 (unit ug/ml)): 27%
"Nc1nc2c(ncn2[C@@H]2O[C@H](CO)CC2(F)F)c(=O)[nH]1 [Example 3, β-1-(2-amino-6-oxo-9H-purin-9-yl)-2,3-dideoxy-2,2-difluororibose]",8.5,–,"inhibition at 25 µg/mL (HSV-2; Human alphaherpesvirus 2, concentration 25 ug/ml): 21%"
"Cc1cn([C@@H]2O[C@H](CO)[C@@H](N=[N+]=[N-])C2(F)F)c(=O)[nH]c1=O [Example 4, β-1-(5-methyl-2,4-dioxo-1H,3H-pyrimidin-1-yl)-3-azido-2,3-dideoxy-2,2-difluororibose]",23.4,39,Inhibition (HSV-2; concentration 13.5 (unit ug/ml)): 50%
"Cc1cn([C@@H]2O[C@H](CO)CC2(F)F)c(=O)[nH]c1=O [Example 5, β-1-(5-methyl-2,4-dioxo-1H,3H-pyrimidin-1-yl)-2,3-dideoxy-2,2-difluororibose]",> 20,35,–
